Data on one compound can be found in publication PMC4999267, “Characterization of Promiscuous Binding of Phosphor Ligands to Breast-Cancer-Gene 1 (BRCA1) C-Terminal (BRCT): Molecular Dynamics, Free Energy, Entropy and Inhibitor Design” (PLoS Computational Biology, 2016).

Structures are written as SMILES. Bounds are passed on as bounds.

The target in this test is BRCT(BRCA1) (Homo sapiens, UniProt P38398). In words: fluorescence polarization competition. It counts as binding. The source says: fluorescence polarization competition on BRCT(BRCA1)
For orientation: Polarisation of emitted light reports the rotation of a fluorescent probe.

Chain of BRCT(BRCA1) (P38398 1646-1859): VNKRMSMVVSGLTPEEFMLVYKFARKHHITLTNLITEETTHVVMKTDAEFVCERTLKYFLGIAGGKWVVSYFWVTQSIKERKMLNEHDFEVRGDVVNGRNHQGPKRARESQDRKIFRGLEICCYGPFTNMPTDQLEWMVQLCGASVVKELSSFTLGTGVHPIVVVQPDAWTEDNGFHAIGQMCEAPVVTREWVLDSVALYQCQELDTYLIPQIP

As a reminder, the IC50 is the point on the concentration scale where inhibition reaches its midpoint. Lower therefore signals inhibition by little substance. For `CC(=O)N[C@@H](COP(=O)(O)O)C(=O)Nc1cccc(CC(=O)N[C@@H](Cc2ccccc2)C(=O)O)c1` [N1], the IC50 is greater than 250 µM.
